US9061013B2, “Isoxazoline derivatives as antiparasitic agents” (Zoetis LLC, priority 2011, dated 2015)

System: Aedes aegypti
Assay: Mosquito (Aedes aegypti) Larval Assay
Details: mosquito larvae in DMSO/water solution, death or paralysis following 24 hour incubation at 22° C., read-out: Minimum Efficacious Dose (MED)
Method: Mosquito (Aedes aegypti) Larval Assay
Formula (1) compounds were dissolved in DMSO and water. Five instar mosquito larvae were added to the solution and observed for death or paralysis following a 24 hour incubation period at 22° C. Endpoint data was recorded as Minimum Efficacious Dose (MED) in μM.

Row | SMILES | minimal effective concentration [µM]
1 | O=C(NCC(F)(F)F)C1CC(O)(c2ccc(C3=NOC(c4cc(Cl)c(Cl)c(Cl)c4)(C(F)(F)F)C3)cc2)C1 (centres unmarked) [Example 1, 3-hydroxy-3-{4-[5-(3,4,5-trichloro-phenyl)-5-trifluoromethyl-4,5-dihydro-isoxazol-3-yl]-phenyl}-cyclobutanecarboxylic acid (2,2,2-trifluoro-ethyl)-amide] | ≤ 100
2 | O=C(NC1CC1)C1CC(O)(c2ccc(C3=NOC(c4cc(Cl)c(Cl)c(Cl)c4)(C(F)(F)F)C3)cc2)C1 (centres unmarked) [Example 2, 3-hydroxy-3-{4-[5-(3,4,5-trichloro-phenyl)-5-trifluoromethyl-4,5-dihydro-isoxazol-3-yl]-phenyl}-cyclobutanecarboxylic acid cyclopropylamide] | ≤ 100
3 | CNC(=O)C1CC(O)(c2ccc(C3=NOC(c4cc(Cl)c(Cl)c(Cl)c4)(C(F)(F)F)C3)cc2)C1 (centres unmarked) [Example 3, 3-hydroxy-3-{4-[5-(3,4,5-trichloro-phenyl)-5-trifluoromethyl-4,5-dihydro-isoxazol-3-yl]-phenyl}-cyclobutanecarboxylic acid methylamide] | ≤ 100
4 | CN(C)C(=O)C1CC(O)(c2ccc(C3=NOC(c4cc(Cl)c(Cl)c(Cl)c4)(C(F)(F)F)C3)cc2)C1 (centres unmarked) [Example 4, 3-hydroxy-3-{4-[5-(3,4,5-trichloro-phenyl)-5-trifluoromethyl-4,5-dihydro-isoxazol-3-yl]-phenyl}-cyclobutanecarboxylic acid dimethylamide] | ≤ 100
5 | O=C(NCC(F)(F)F)C1CC(F)(c2ccc(C3=NOC(c4cc(Cl)c(Cl)c(Cl)c4)(C(F)(F)F)C3)cc2)C1 (centres unmarked) [Example 7, 3-fluoro-3-{4-[5-(3,4,5-trichloro-phenyl)-5-trifluoromethyl-4,5-dihydro-isoxazol-3-yl]-phenyl}-cyclobutanecarboxylic acid (2,2,2-trifluoro-ethyl)-amide] | ≤ 100
6 | CNC(=O)C1CC(F)(c2ccc(C3=NOC(c4cc(Cl)c(Cl)c(Cl)c4)(C(F)(F)F)C3)cc2)C1 (centres unmarked) [Example 10, 3-fluoro-3-{4-[5-(3,4,5-trichloro-phenyl)-5-trifluoromethyl-4,5-dihydro-isoxazol-3-yl]-phenyl}-cyclobutanecarboxylic acid methylamide] | ≤ 100
7 | CN(C)C(=O)C1CC(F)(c2ccc(C3=NOC(c4cc(Cl)c(Cl)c(Cl)c4)(C(F)(F)F)C3)cc2)C1 (centres unmarked) [Example 11, 3-fluoro-3-{4-[5-(3,4,5-trichloro-phenyl)-5-trifluoromethyl-4,5-dihydro-isoxazol-3-yl]-phenyl}-cyclobutanecarboxylic acid dimethylamide] | ≤ 100
8 | CC(C)NC(=O)C1CC(F)(c2ccc(C3=NOC(c4cc(Cl)c(Cl)c(Cl)c4)(C(F)(F)F)C3)cc2)C1 (centres unmarked) [Example 13] | ≤ 100
9 | CCNC(=O)C1CC(F)(c2ccc(C3=NOC(c4cc(Cl)c(Cl)c(Cl)c4)(C(F)(F)F)C3)cc2)C1 (centres unmarked) [Example 14, 3-fluoro-3-{4-[5-(3,4,5-trichloro-phenyl)-5-trifluoromethyl-4,5-dihydro-isoxazol-3-yl]-phenyl}-cyclobutanecarboxylic acid ethylamide] | ≤ 100
10 | O=C(CNC(=O)C1CC(F)(c2ccc(C3=NOC(c4cc(Cl)c(Cl)c(Cl)c4)(C(F)(F)F)C3)cc2)C1)NCC(F)(F)F (centres unmarked) [Example 15, 3-fluoro-N-(2-oxo-2-((2,2,2-trifluoroethyl)amino)ethyl)-3-(4-(5-(3,4,5-trichlorophenyl)-5-(trifluoromethyl)-4,5-dihydroisoxazol-3-yl)phenyl)cyclobutanecarboxamide] | ≤ 100
11 | O=C(NC1CC1)C1CN(c2ccc(C3=NOC(c4cc(Cl)c(Cl)c(Cl)c4)(C(F)(F)F)C3)cc2)C1 (centres unmarked) [Example 16, 1-{4-[5-(3,4,5-trichloro-phenyl)-5-trifluoromethyl-4,5-dihydro-isoxazol-3-yl]-phenyl}-azetidine-3-carboxylic acid cyclopropylamide] | ≤ 100
12 | CNC(=O)C1CN(c2ccc(C3=NOC(c4cc(Cl)c(Cl)c(Cl)c4)(C(F)(F)F)C3)cc2)C1 (centres unmarked) [Example 17, 1-{4-[5-(3,4,5-trichloro-phenyl)-5-trifluoromethyl-4,5-dihydro-isoxazol-3-yl]-phenyl}-azetidine-3-carboxylic acid methylamide] | ≤ 100
13 | O=C(NCC(F)(F)F)C1CN(c2ccc(C3=NOC(c4cc(Cl)c(Cl)c(Cl)c4)(C(F)(F)F)C3)cc2)C1 (centres unmarked) [Example 18, 1-{4-[5-(3,4,5-trichloro-phenyl)-5-trifluoromethyl-4,5-dihydro-isoxazol-3-yl]-phenyl}-azetidine-3-carboxylic acid (2,2,2-trifluoro-ethyl)-amide] | ≤ 100
14 | CN(C)C(=O)C1CN(c2ccc(C3=NOC(c4cc(Cl)c(Cl)c(Cl)c4)(C(F)(F)F)C3)cc2)C1 (centres unmarked) [Example 19, 1-{4-[5-(3,4,5-trichloro-phenyl)-5-trifluoromethyl-4,5-dihydro-isoxazol-3-yl]-phenyl}azetidine-3-carboxylic acid dimethylamide] | ≤ 100
15 | CNC(=O)C1CN(c2ccc(C3=NOC(c4cc(Cl)c(Cl)c(Cl)c4)(C(F)(F)F)C3)cc2Cl)C1 (centres unmarked) [Example 20, 1-{2-chloro-4-[5-(3,4,5-trichloro-phenyl)-5-trifluoromethyl-4,5-dihydro-isoxazol-3-yl]-phenyl}-azetidine-3-carboxylic acid methylamide] | ≤ 100
16 | O=C(NCC(F)(F)F)C1CN(c2ccc(C3=NOC(c4cc(Cl)c(Cl)c(Cl)c4)(C(F)(F)F)C3)cc2Cl)C1 (centres unmarked) [Example 21, 1-{2-chloro-4-[5-(3,4,5-trichloro-phenyl)-5-trifluoromethyl-4,5-dihydro-isoxazol-3-yl]-phenyl}-azetidine-3-carboxylic acid (2,2,2-trifluoro-ethyl)-amide] | ≤ 100
17 | O=C(NC1CC1)C1CN(c2ccc(C3=NOC(c4cc(Cl)c(Cl)c(Cl)c4)(C(F)(F)F)C3)cc2Cl)C1 (centres unmarked) [Example 22, 1-{2-chloro-4-[5-(3,4,5-trichloro-phenyl)-5-trifluoromethyl-4,5-dihydro-isoxazol-3-yl]-phenyl}-azetidine-3-carboxylic acid cyclopropylamide] | ≤ 100
18 | CN(C)C(=O)C1CN(c2ccc(C3=NOC(c4cc(Cl)c(Cl)c(Cl)c4)(C(F)(F)F)C3)cc2Cl)C1 (centres unmarked) [Example 23, 1-{2-chloro-4-[5-(3,4,5-trichloro-phenyl)-5-trifluoromethyl-4,5-dihydro-isoxazol-3-yl]-phenyl}-azetidine-3-carboxylic acid dimethylamide] | ≤ 100
19 | O=C(NC1CC(F)(c2ccc(C3=NOC(c4cc(Cl)c(Cl)c(Cl)c4)(C(F)(F)F)C3)cc2)C1)C1CC1 (centres unmarked) [Example 24, N-(3-fluoro-3-(4-(5-(3,4,5-trichlorophenyl)-5-(trifluoromethyl)-4,5-dihydroisoxazol-3-yl)phenyl)cyclobutyl)cyclopropanecarboxamide] | ≤ 100
20 | CS(=O)(=O)CC(=O)NC1CC(F)(c2ccc(C3=NOC(c4cc(Cl)c(Cl)c(Cl)c4)(C(F)(F)F)C3)cc2)C1 (centres unmarked) [Example 25, N-(3-fluoro-3-(4-(5-(3,4,5-trichlorophenyl)-5-(trifluoromethyl)-4,5-dihydroisoxazol-3-yl)phenyl)cyclobutyl)-2-(methylsulfonyl)acetamide] | ≤ 100
